{
  "source": "patent US20170003277A1",
  "about": "(priority 2015, published 2017)",
  "key": {"[1]": {"tested_on": "mouse splenocytes, THP-1 human monocyte cell line, PBMCs from MS patients", "test": "Integrated analysis of genes modulated by Copaxone across mouse splenocytes, THP-1 human monocytes and MS patient PBMCs", "settings": "human monocytes", "source_text": "(§1) Genome-wide expression profiles in cells from three different datasets in two different species (human, mouse) were studied. LIMMA was utilized to identify a genome-wide list of differentially expressed genes induced by GA in the primed and ex vivo stimulated mouse splenocytes, as well as in the THP-1 human monocyte cell line. Repeated-measures ANOVA was utilized to find a genome-wide list of genes modulated by GA in treated MS patients. Advanced enrichment algorithms were then applied to elucidate the pathways and cell types modulated by GA.\nThe genes modulated by GA treatment in multiple studies were examined for enrichment in particular immunological cell types."}, "[2]": {"tested_on": "mouse splenocytes, THP-1 human monocyte cell line, PBMCs from MS patients", "settings": "prior study (ACTRIMS-ECTRIMS 2014, P282); cited from earlier work"}, "human PBMC": {"tested_on": "human PBMC", "test": "Immunological cell type enrichment for genes modulated by GA in human PBMC", "type": "in vivo", "parameters": "Score: scale not given here", "source_text": "as §1\nIn addition to the shared induced effects discussed above, each system and platform clearly captured different aspects of GA's impact on the immune system. […] In human PBMCs, genes associated with immune cell types were modulated early in treatment (by month 3), including certain cell types affected in prior systems, but also distinct cell types, such as megakaryocytes and myeloid progenitors (Table 11)."}, "[3]": {"tested_on": "THP-1 human monocyte cell line", "test": "Microarray gene expression in THP-1 cells, Polimunol vs Copaxone, two repeats, 6 hours (Example 11)", "type": "cell-based"}, "[4]": {"settings": "BASO1.rnk, Upregulated, Cluster 2"}, "[5]": {"settings": "BCELLA1.rnk, Downregulated, Cluster 0"}, "[6]": {"settings": "BCELLA2.rnk, Downregulated, Cluster 0"}, "[7]": {"settings": "BCELLA3.rnk, Downregulated, Cluster 0"}, "[8]": {"settings": "BCELLA4.rnk, Downregulated, Cluster 0"}, "[9]": {"settings": "CMP.rnk, Upregulated, Cluster 4"}, "[10]": {"settings": "EOS2.rnk, Upregulated, Cluster 2"}, "[11]": {"settings": "ERY1.rnk, Upregulated, Cluster 2"}, "[12]": {"settings": "ERY1.rnk, Upregulated, Cluster 4"}, "[13]": {"settings": "ERY2.rnk, Upregulated, Cluster 2"}, "[14]": {"settings": "ERY2.rnk, Upregulated, Cluster 4"}, "[15]": {"settings": "ERY3.rnk, Upregulated, Cluster 2"}, "[16]": {"settings": "ERY3.rnk, Upregulated, Cluster 4"}, "[17]": {"settings": "ERY4.rnk, Upregulated, Cluster 2"}, "[18]": {"settings": "ERY4.rnk, Upregulated, Cluster 4"}, "[19]": {"settings": "ERY5.rnk, Upregulated, Cluster 2"}, "[20]": {"settings": "ERY5.rnk, Upregulated, Cluster 4"}, "[21]": {"settings": "GMP.rnk, Upregulated, Cluster 4"}, "[22]": {"settings": "GRAN1.rnk, Upregulated, Cluster 2"}, "[23]": {"settings": "GRAN2.rnk, Upregulated, Cluster 4"}, "[24]": {"settings": "HSC3.rnk, Upregulated, Cluster 4"}, "[25]": {"settings": "MEGA1.rnk, Upregulated, Cluster 4"}, "[26]": {"settings": "MEGA2.rnk, Upregulated, Cluster 0"}, "[27]": {"settings": "MEGA2.rnk, Upregulated, Cluster 4"}, "[28]": {"settings": "MEP.rnk, Upregulated, Cluster 2"}, "[29]": {"settings": "PRE_BCELL3.rnk, Upregulated, Cluster 2"}, "[30]": {"settings": "In two prior THP-1 studies (intersection of both prior datasets)"}, "[31]": {"settings": "Intersection of prior THP-1 studies and current study"}},
  "data": [
    {"substance": "glatiramer acetate [Copaxone®]", "values": [
      {"measurement": "IL-10 gene expression in all 3 systems", "setting": "[1]", "value": "Upregulated expression"},
      {"measurement": "Number of genes modulated significantly by GA in all three studies", "setting": "[1]", "value": 39},
      {"measurement": "Genes modulated by Copaxone in both mouse splenocyte and THP-1 systems", "setting": "[2]", "value": "1,378"},
      {"measurement": "Genes modulated by Copaxone only in THP-1 cells", "setting": "[2]", "value": "2,121"},
      {"measurement": "Genes modulated by Copaxone only in splenocytes", "setting": "[2]", "value": "6,691"},
      {"measurement": "Score", "setting": "human PBMC; [4]", "value": 87.3},
      {"measurement": "p.val", "setting": "human PBMC; [4]", "value": 0.00322},
      {"measurement": "Score", "setting": "human PBMC; [5]", "value": "−19.11"},
      {"measurement": "p.val", "setting": "human PBMC; [5]", "value": 0.002737},
      {"measurement": "Score", "setting": "human PBMC; [6]", "value": "−25.77"},
      {"measurement": "p.val", "setting": "human PBMC; [6]", "value": 0.0004201},
      {"measurement": "Score", "setting": "human PBMC; [7]", "value": "−20.11"},
      {"measurement": "p.val", "setting": "human PBMC; [7]", "value": 0.001385},
      {"measurement": "Score", "setting": "human PBMC; [8]", "value": "−21.51"},
      {"measurement": "p.val", "setting": "human PBMC; [8]", "value": 0.002538},
      {"measurement": "Score", "setting": "human PBMC; [9]", "value": 23.19},
      {"measurement": "p.val", "setting": "human PBMC; [9]", "value": 0.002214},
      {"measurement": "Score", "setting": "human PBMC; [10]", "value": 62.69},
      {"measurement": "p.val", "setting": "human PBMC; [10]", "value": 0.002286},
      {"measurement": "Score", "setting": "human PBMC; [11]", "value": 28.25},
      {"measurement": "p.val", "setting": "human PBMC; [11]", "value": 0.003043},
      {"measurement": "Score", "setting": "human PBMC; [12]", "value": 45},
      {"measurement": "p.val", "setting": "human PBMC; [12]", "value": 0.002587},
      {"measurement": "Score", "setting": "human PBMC; [13]", "value": 32.83},
      {"measurement": "p.val", "setting": "human PBMC; [13]", "value": "8.43E−05"},
      {"measurement": "Score", "setting": "human PBMC; [14]", "value": 47.25},
      {"measurement": "p.val", "setting": "human PBMC; [14]", "value": "4.70E−06"},
      {"measurement": "Score", "setting": "human PBMC; [15]", "value": 84.62},
      {"measurement": "p.val", "setting": "human PBMC; [15]", "value": 0.0002869},
      {"measurement": "Score", "setting": "human PBMC; [16]", "value": 90.02},
      {"measurement": "p.val", "setting": "human PBMC; [16]", "value": 0.009061},
      {"measurement": "Score", "setting": "human PBMC; [17]", "value": 69.44},
      {"measurement": "p.val", "setting": "human PBMC; [17]", "value": 0.0001417},
      {"measurement": "Score", "setting": "human PBMC; [18]", "value": 77.38},
      {"measurement": "p.val", "setting": "human PBMC; [18]", "value": 0.001966},
      {"measurement": "Score", "setting": "human PBMC; [19]", "value": 64.23},
      {"measurement": "p.val", "setting": "human PBMC; [19]", "value": "9.88E−07"},
      {"measurement": "Score", "setting": "human PBMC; [20]", "value": 73.42},
      {"measurement": "p.val", "setting": "human PBMC; [20]", "value": 0.0009808},
      {"measurement": "Score", "setting": "human PBMC; [21]", "value": 33.13},
      {"measurement": "p.val", "setting": "human PBMC; [21]", "value": 0.0001427},
      {"measurement": "Score", "setting": "human PBMC; [22]", "value": 55.17},
      {"measurement": "p.val", "setting": "human PBMC; [22]", "value": 0.0005577},
      {"measurement": "Score", "setting": "human PBMC; [23]", "value": 35.18},
      {"measurement": "p.val", "setting": "human PBMC; [23]", "value": 0.00875},
      {"measurement": "Score", "setting": "human PBMC; [24]", "value": 45.41},
      {"measurement": "p.val", "setting": "human PBMC; [24]", "value": 0.0002875},
      {"measurement": "Score", "setting": "human PBMC; [25]", "value": 38.05},
      {"measurement": "p.val", "setting": "human PBMC; [25]", "value": "4.66E−09"},
      {"measurement": "Score", "setting": "human PBMC; [26]", "value": 32.43},
      {"measurement": "p.val", "setting": "human PBMC; [26]", "value": "1.24E−12"},
      {"measurement": "Score", "setting": "human PBMC; [27]", "value": 64.46},
      {"measurement": "p.val", "setting": "human PBMC; [27]", "value": "4.41E−12"},
      {"measurement": "Score", "setting": "human PBMC; [28]", "value": 30.54},
      {"measurement": "p.val", "setting": "human PBMC; [28]", "value": 0.009388},
      {"measurement": "Score", "setting": "human PBMC; [29]", "value": 57.94},
      {"measurement": "p.val", "setting": "human PBMC; [29]", "value": "3.98E−08"},
      {"measurement": "Probesets significantly modulated by Copaxone relative to mannitol", "setting": "[3]; 6 hours", "value": "12,115"},
      {"measurement": "IL1ORA expression relative to mannitol", "setting": "[3]; FDR p<1.7e-21", "value": "significantly upregulated"},
      {"measurement": "Probesets downregulated by Copaxone versus mannitol with FC ≦ −1.5, number", "setting": "[3]; In current study", "value": 28},
      {"measurement": "Probesets upregulated by Copaxone versus mannitol with FC ≧ 1.5, number", "setting": "[3]; In current study", "value": 156},
      {"measurement": "Probesets downregulated by Copaxone versus mannitol with FC ≦ −1.5, number", "setting": "[3]; [30]", "value": 15},
      {"measurement": "Probesets upregulated by Copaxone versus mannitol with FC ≧ 1.5, number", "setting": "[3]; [30]", "value": 149},
      {"measurement": "Probesets downregulated by Copaxone versus mannitol with FC ≦ −1.5, number", "setting": "[3]; [31]", "value": 9},
      {"measurement": "Probesets upregulated by Copaxone versus mannitol with FC ≧ 1.5, number", "setting": "[3]; [31]", "value": 94},
      {"measurement": "IL1RN expression relative to mannitol", "setting": "[3]; all 3 present probesets: FDR p values<6.2e-21, 2.6e-17, 8.0e-14", "value": "strongly upregulated"},
      {"measurement": "IL10 expression relative to mannitol", "setting": "[3]; single probeset not present", "value": "not upregulated significantly"},
      {"measurement": "Significant probesets in pairwise comparisons between three Copaxone lots", "setting": "[3]; two comparisons / third comparison (adjusted p value 0.044)", "value": "zero and single"},
      {"measurement": "Probesets significantly downregulated by Copaxone", "setting": "[3]; vs mannitol, 6 hours", "value": 6819},
      {"measurement": "Probesets significantly upregulated by Copaxone", "setting": "[3]; vs mannitol, 6 hours", "value": 5296}
    ]}
  ]
}
